In patent publication US12084698B2, “Virus-like particles and use thereof” (priority 2018, dated 2024):

Columns and labels:
[1] = tested on: DMD gene; assay: T7EI assay in HEK293T EGxxFP cells expressing sgRNA DMD #1; type: cell-based, human; conditions: VLPs prepared in presence or absence of AP21967
Description: By using MonoFas Genomic DNA Extraction kit (GL Sciences Inc.), genomic DNA was recovered from the cultured cells according to the protocol. Then, PCR was performed using 100 ng of the genomic DNA, primers for the regions to be amplified, and PrimeSTAR GXL DNA Polymerase (Takara Bio Inc.), and the PCR product was purified using Wizard SV Gel and PCR Clean-up System (Promega Corporation).
Subsequently, 400 ng of the PCR product was thermally denatured in NEBuffer 2.1 (New England Biolabs) at 95° C. for 5 minutes and then reannealed by slow cooling. The PCR product was cooled to 85° C. from 95° C. at −2° C./sec and then to 25° C. from 85° C. at −0.1° C./sec. Subsequently, 10 units of T7 endonuclease I (T7EI) enzyme was added thereto and reacted at 37° C. for 15 minutes. Thereafter, 6 mM of EDTA was added thereto so that the reaction stopped. Then, the cleavage products were analyzed using DS1000 High Sensitivity Screen Tape and Tape Station 2200 (Agilent Technologies, Inc.).
Then, the cleavage activity for the target DMD gene on the genome was measured by T7EI assay.
After 3 days, genomic DNA was extracted from each of the cells. Subsequently, the target region of the DMD gene on the genome was amplified by PCR. Thereafter, the PCR product was purified using columns, and by using 400 ng of the obtained DNA, mutation introduction efficiency was measured by T7EI assay.

[2] = tested on: EGxxFP reporter construct in HEK293T EGxxFP cells; assay: SSA-EGFP (EGxxFP) reporter experiment, flow cytometry of GFP-positive cells; type: cell-based, human; conditions: VLPs prepared at 0, 3, 30, 300 nM AP21967; 5×10^4 cells; 3 days
Description: The HEK293T EGxxFP cells were seeded on a 48-well plate at 2.5×10^4 to 5.0×10^4 cells/well. On the next day, the VLP solution was added thereto, and then after 3 days, the fluorescence of EGFP was analyzed using an LSR3 flow cytometer.
FIG. 2 is a schematic view illustrating an SSA-EGFP (hereinafter, called “EGxxFP” in some cases) reporter experiment. As cells, HEK293T cells were used which constantly express sgRNA targeting the human Dystrophin (DMD) gene and have genome into which the EGxxFP reporter construct (SEQ ID NO: 21) was inserted. The EGxxFP reporter construct is a construct designed by inserting a sequence including the target sequence of the sgRNA into the EGFP cDNA sequence, so that a functional EGFP protein is not expressed.
Then, the cleaved EGFP cDNA is repaired by single-strand annealing (SSA). As a result, functional EGFP is expressed, and the fluorescence of EGFP can be observed. In this experimental system, by quantifying the fluorescence of EGFP in the cells by using a flow cytometer, it is possible to evaluate the target gene cleavage efficiency (genome editing efficiency) of the Cas9 protein in cell populations.
Then, the prepared VLPs (15 μL) were introduced into the HEK293T EGxxFP reporter cells (5×10^4 cells expressing sgRNA). Subsequently, after 3 days, the proportion of GFP-positive cells was analyzed with a flow cytometer.

[3] = tested on: DNA (700 bp) including a dystrophin target sequence; assay: In vitro DNA cleavage activity of VLP lysate; type: biochemical, human; conditions: VLPs prepared in presence or absence of AP21967
Description: Thereafter, in order to test the amount of the Cas9 protein contained in VLPs, in vitro DNA cleavage activity was measured. Specifically, Lysis buffer was added to each of the concentrated VLPs, and the mixture was left to stand on ice for 10 minutes so that the VLPs were lysed.
After the reaction, in order to remove sgRNA, RNase A was added thereto and reacted at 37° C. for 30 minutes. Furthermore, in order to remove proteins, proteinase K was added thereto and reacted at 50° C. for 20 minutes.
Then, these samples were subjected to electrophoresis using 2200 TapeStation (high sensitivity D1000 TapeScreen, Agilent Technologies, Inc.), and the proportion of cleaved DNA including the dystrophin target sequence was measured.

[4] = target: HIV protease (Human immunodeficiency virus type 1 group M subtype B, UniProt P04585); conditions: Darunavir added to cells in preparing VLPs
Description: First, in the presence or absence of Darunavir (HIV protease inhibitor), VLPs (FIGS. 1(a) and 1(b)) were prepared which were constituted with wild-type Gag-Pol^HIV or FKBP12-Gag-Pol^HIV derived from HIV and encapsulated a Cas9 protein fused with an FRB domain (hereinafter, called “FRB-Cas9 protein” in some cases).
Subsequently, FKBP12-Gag-Pol^HIV and the HA-tagged FRB-Cas9 protein in each of the above VLPs were quantified by Western blotting.

In the case of CO[C@H]1[C@@H](O)[C@H](C)C[C@H](C)/C=C/C=C/C=C(\C)[C@@H](c2c[nH]c3c(C)cccc23)C[C@@H]2CC[C@@H](C)[C@@](O)(O2)C(=O)C(=O)N2CCCC[C@H]2C(=O)O[C@H]([C@H](C)C[C@@H]2CC[C@@H](O)[C@H](OC)C2)C[C@H](O)[C@H](C)/C=C(\C)[C@H]1O [AP21967, C-16-(S)-7-methylindole rapamycin], the “encapsulation of Cas9 in VLPs on addition of AP21967” value [1] is reported as “more efficiently encapsulated”, the “genome editing efficiency (proportion of GFP-positive cells)” value [2] is reported as “increases depending on the AP21967 concentration” and the “encapsulation of Cas9 in VLPs on addition of AP21967” value [3] is reported as “more efficiently encapsulated”.
CC(C)CN(C[C@@H](O)[C@H](Cc1ccccc1)NC(=O)O[C@H]1CO[C@H]2OCC[C@H]21)S(=O)(=O)c1ccc(N)cc1 [Darunavir] was tested, and the “cleavage of Gag protein and degradation of Cas9 protein in VLPs” value [4] was “inhibited”.
